These results are taken from ChEMBL document CHEMBL1158966, “Chemical characterization and pharmacological activity of nazlinin, a novel indole alkaloid from Nitraria schoberi” (1991).

The structures appear in SMILES notation. Active and inactive are the calls of the source. The calls are words filed in the database; no cut-off is given here.

The species named for experiment [1] is Oryctolagus cuniculus. The experiment can be described thus: Vasorelaxant activity against PGF2-alpha-induced contraction in endothelium-denuded rabbit aortic rings at 0.04 to 400 nmol. The class given is functional, tissue-based. Conditions: Aorta.
Experiment [2] is described as follows: Contractile activity in rabbit celiac arteries relative to control. The class given is functional. Conditions: Oryctolagus cuniculus, Celiac artery.
Experiment [3] is filed under the species Oryctolagus cuniculus. Nature of the experiment: Vasorelaxant activity against PGF2-alpha-induced contraction in endothelium-intact rabbit aortic rings in presence of indomethacin. The class given is functional, tissue-based. Conditions: Aorta.
Experiment [4] is filed under the species Oryctolagus cuniculus. Nature of the experiment: Vasorelaxant activity against PGF2-alpha-induced contraction in endothelium-intact rabbit aortic rings in presence of phentolamine. The class given is functional, tissue-based. Conditions: Aorta.
For experiment [5], the system named is Aorta. The experiment can be described thus: Contractile activity in endothelium-intact rabbit aortic rings in presence of ketanserin tartrate. It counts as functional, tissue-based. Conditions: Oryctolagus cuniculus.
The species entered for experiment [6] is Oryctolagus cuniculus. Nature of the experiment: Vasorelaxant activity against PGF2-alpha-induced contraction in endothelium-intact rabbit aortic rings in presence of atropine sulfate. It counts as functional, tissue-based. Conditions: Aorta.
Experiment [7] is described as follows: Contractile activity in rabbit mesenteric arteries relative to control. It counts as functional. Conditions: Oryctolagus cuniculus, Mesenteric artery.
The species entered for experiment [8] is Oryctolagus cuniculus. The experiment can be described thus: Vasorelaxant activity against PGF2-alpha-induced contraction in endothelium-intact rabbit aortic rings in presence of prazosin. It counts as functional, tissue-based. Conditions: Aorta.
Experiment [9] is filed under the species Oryctolagus cuniculus. The experiment can be described thus: (§1) Contractile activity in rabbit mesenteric artery. The class given is functional.
Experiment [10] can be described thus: as §1. The class given is functional, Oryctolagus cuniculus.
The test system of experiment [11] is Aorta. The experiment can be described thus: Contractile activity in endothelium-intact rabbit aortic rings at >40 nmol to 400 nmol. It counts as functional, tissue-based. Conditions: Oryctolagus cuniculus.
Experiment [12] is filed under the species Oryctolagus cuniculus. The experiment can be described thus: (§2) Contractile activity in rabbit celiac artery. It counts as functional.
A short description of experiment [13]: as §2. The class given is functional, Oryctolagus cuniculus.
Experiment [14] is filed under the species Oryctolagus cuniculus. Nature of the experiment: Vasorelaxant activity against PGF2-alpha-induced contraction in endothelium-intact rabbit aortic rings in presence of propranolol hydrochloride. The class given is functional, tissue-based. Conditions: Aorta.
Experiment [15] is filed under the species Oryctolagus cuniculus. The experiment can be described thus: Vasorelaxant activity against PGF2-alpha-induced contraction in endothelium-intact rabbit aortic rings up to 40 nmol. The class given is functional, tissue-based. Conditions: Aorta.
For experiment [16], the species on record is Oryctolagus cuniculus. The experiment can be described thus: Vasorelaxant activity against PGF2-alpha-induced contraction in endothelium-intact rabbit aortic rings in presence of ketanserin tartrate. It counts as functional, tissue-based. Conditions: Aorta.

Consider `NC1CCCCNCCc2c1[nH]c1ccccc21` (stereo not given) [NAZLININ], for which the outcome in the experiment filed under Oryctolagus cuniculus [1] and in the experiment with Aorta [5] was inactive. Moreover, the Emax in experiment [2] was 71%; in experiment [7], 83%. The outcome in the experiment listed under Oryctolagus cuniculus [3], in the experiment listed under Oryctolagus cuniculus [4], in the experiment filed under Oryctolagus cuniculus [6], in the experiment filed under Oryctolagus cuniculus [8], in the experiment with Aorta [11] and in the experiment filed under Oryctolagus cuniculus [14] was Active. Also, the outcome in the experiment listed under Oryctolagus cuniculus [15] and in the experiment listed under Oryctolagus cuniculus [16] was Active. In addition, the Activity entry in the experiment listed under Oryctolagus cuniculus [9] and in the experiment listed under Oryctolagus cuniculus [12] was “Dose-dependent effect” each time. In addition, the ED50 is on record as 70 nmol in experiment [10] and 115 nmol in experiment [13].
Consider `NCCc1c[nH]c2ccc(O)cc12` [SEROTONIN], for which the outcome in the experiment filed under Oryctolagus cuniculus [1] was inactive. In addition, the Emax in experiment [2] came out at 110%; in experiment [7], 108%. The Activity result in the experiment listed under Oryctolagus cuniculus [9] and in the experiment filed under Oryctolagus cuniculus [12] was “Dose-dependent effect” in each case. Moreover, the ED50 in experiment [10] is 0.126 nmol; in [13], 0.156 nmol. Also, the result in the experiment on Aorta [11] and in the experiment filed under Oryctolagus cuniculus [15] was Active.

The term Emax denotes the size of the effect at its maximum, as opposed to the concentration needed.
